Columns and labels:
Lck (p56^lck) = biological target: T1, Lck (p56^lck) (Homo sapiens, UniProt P06239); test: SRC-Inhibitor-Assay (time-resolved fluorescence kinase assay), Lck; type: biochemical; settings: ATP 5 μM, peptide 10 μM, enzyme 2.5 U/ml, pH 7.3
T1 construct: purchased UBI, Upstate Biotech, Inc
Text: (§1) The activity of the compounds according to this invention as inhibitors for the src-family tyrosine kinases was shown by using the following assay.
(§2) ATP, Tween™ 20, 4-(2-hydroxyethyl)-1-piperazineethanesulfonic acid (HEPES) were purchased from Roche Molecular Biochemicals, MgCl2 and MnCl2 were purchased from Merck Eurolab, Tris(2-carboxyethyl)phosphine hydrochloride (TCEP) was purchased from Pierce, 384 Well low volume fluorescence plates was purchased from Falcon.
(§3) At first the enzyme is pre-incubated for 15 min. at 15° C. in aqueous solution with corresponding amounts of inhibitors according to this invention. Then the phosphorylation reaction is started by adding a reaction mixture, containing ATP, Peptide and PT66, and subsequent shaking. The proceeding of this reaction is immediately monitored using time resolved fluorescence spectroscopy in a suitable well plate reader.
(§4) The IC50-values can be obtained from the reaction rates by using a non-linear curve fit (XLfit software (ID Business Solution Ltd., Guilford, Surrey, UK))

Src (p60^c-src) = biological target: T2, Src (p60^c-src) (Homo sapiens, UniProt P12931); test: SRC-Inhibitor-Assay (time-resolved fluorescence kinase assay), Src; type: biochemical; settings: ATP 5 μM, peptide 10 μM, enzyme 2.5 U/ml, pH 7.3
T2 construct: purchased UBI, Upstate Biotech, Inc
Text: as §1, §2, §3, §4

T2 sequence (P12931 whole entry): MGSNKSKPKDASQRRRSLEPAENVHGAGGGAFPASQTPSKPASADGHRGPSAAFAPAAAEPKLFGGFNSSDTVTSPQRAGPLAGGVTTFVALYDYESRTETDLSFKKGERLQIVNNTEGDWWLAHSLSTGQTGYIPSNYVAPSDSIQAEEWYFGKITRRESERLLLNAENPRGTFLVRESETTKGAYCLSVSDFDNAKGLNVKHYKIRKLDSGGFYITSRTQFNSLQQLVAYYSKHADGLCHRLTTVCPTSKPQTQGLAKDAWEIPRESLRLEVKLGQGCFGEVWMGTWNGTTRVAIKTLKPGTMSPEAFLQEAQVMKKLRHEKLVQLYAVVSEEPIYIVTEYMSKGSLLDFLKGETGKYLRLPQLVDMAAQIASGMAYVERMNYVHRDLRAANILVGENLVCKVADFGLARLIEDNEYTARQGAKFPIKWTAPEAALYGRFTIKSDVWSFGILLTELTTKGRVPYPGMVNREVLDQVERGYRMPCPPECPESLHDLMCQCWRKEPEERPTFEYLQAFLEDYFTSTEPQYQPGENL
T1 sequence (P06239 whole entry): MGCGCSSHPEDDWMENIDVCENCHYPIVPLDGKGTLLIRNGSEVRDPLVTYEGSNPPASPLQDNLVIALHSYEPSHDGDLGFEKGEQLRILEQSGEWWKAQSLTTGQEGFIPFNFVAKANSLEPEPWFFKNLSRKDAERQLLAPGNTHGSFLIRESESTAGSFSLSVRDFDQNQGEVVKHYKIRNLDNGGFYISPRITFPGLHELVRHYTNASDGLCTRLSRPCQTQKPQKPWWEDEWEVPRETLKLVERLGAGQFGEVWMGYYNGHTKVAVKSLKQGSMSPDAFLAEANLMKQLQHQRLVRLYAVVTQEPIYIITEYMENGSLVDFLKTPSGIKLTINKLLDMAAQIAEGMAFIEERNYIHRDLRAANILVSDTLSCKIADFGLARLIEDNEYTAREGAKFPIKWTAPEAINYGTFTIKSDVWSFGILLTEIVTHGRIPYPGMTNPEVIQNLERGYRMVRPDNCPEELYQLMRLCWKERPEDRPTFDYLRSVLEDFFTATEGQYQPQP

CC(C)OC(=O)Nc1cnc2[nH]c(-c3ccsc3)nc2c1 [Example 2-7, (2-Thiophen-3-yl-3H-imidazo[4,5-b]pyridin-6-yl)-carbamic acid isopropyl ester]
melting point: 342 °C (dec.)

CC(C)(C)COC(=O)Nc1cnc2[nH]c(-c3ccccc3)nc2c1 [Example 1-12, (2-Phenyl-3H-imidazo[4,5-b]pyridin-6-yl)-carbamic acid 2,2-dimethyl-propyl ester]
IC50 (Lck (p56^lck)): 2000 to 9000 nM | IC50 (Src (p60^c-src)): 500 to 1500 nM

CC(=O)Nc1cccc(-c2cc3cc(NC(=O)OC(C)C)cnc3[nH]2)c1 [Example 9-20, [2-(3-Acetylamino-phenyl)-1H-pyrrolo[2,3-b]pyridin-5-yl]-carbamic acid isopropyl ester]
IC50 (Lck (p56^lck)): 100 to 9000 nM | IC50 (Src (p60^c-src)): 10 to 500 nM

COCCN(CCOC)c1ccc(-c2nc3cc(NC(=O)OC(C)C)cnc3[nH]2)cc1F [Example 10-2, (2-{4-[Bis-(2-methoxy-ethyl)-amino]-3-fluoro-phenyl}-3H-imidazo[4,5-b]pyridin-6-yl)-carbamic acid isopropyl ester]
IC50 (Lck (p56^lck)): 100 to 9000 nM | IC50 (Src (p60^c-src)): 10 to 500 nM

O=C(Nc1cnc2[nH]c(-c3ccccc3)cc2c1)OCc1ccccc1 [Example 9-8, (2-Phenyl-1H-pyrrolo[2,3-b]pyridin-5-yl)-carbamic acid benzyl ester]
IC50 (Lck (p56^lck)): 100 to 9000 nM | IC50 (Src (p60^c-src)): 10 to 500 nM

CCC(C)OC(=O)Nc1cnc2[nH]c(-c3ccccc3)nc2c1 (stereo not shown) [Example 1-9, (2-Phenyl-3H-imidazo[4,5-b]pyridin-6-yl)-carbamic acid sec-butyl ester]
IC50 (Lck (p56^lck)): 100 to 9000 nM | IC50 (Src (p60^c-src)): 10 to 500 nM

CC(C)OC(=O)Nc1cnc2[nH]c(-c3ccc([N+](=O)[O-])cc3)nc2c1 [Example 3-4, [2-(4-Nitro-phenyl)-3H-imidazo[4,5-b]pyridin-6-yl]-carbamic acid isopropyl ester]
IC50 (Lck (p56^lck)): 100 to 9000 nM | IC50 (Src (p60^c-src)): 10 to 500 nM

CC(C)OC(=O)Nc1cnc2[nH]c(-c3cccc([S+](C)[O-])c3)nc2c1 (stereo not shown) [Example 8-1, [2-(3-Methylsulfinyl-phenyl)-3H-imidazo[4,5-b]pyridin-6-yl]-carbamic acid isopropyl ester]
IC50 (Lck (p56^lck)): 100 to 9000 nM | IC50 (Src (p60^c-src)): 10 to 500 nM

CC(=O)Nc1ccc(-c2cc3cc(NC(=O)OCC(C)(C)C)cnc3[nH]2)cc1 [Example 9-25, [2-(4-Acetylamino-phenyl)-1H-pyrrolo[2,3-b]pyridin-5-yl]-carbamic acid 2,2-dimethyl-propyl ester]
IC50 (Lck (p56^lck)): 100 to 9000 nM | IC50 (Src (p60^c-src)): 10 to 500 nM

COCCOc1ccc(-c2cc3cc(NC(=O)OC(C)C)cnc3[nH]2)cc1 [Example 9-17, {2-[4-(2-Methoxy-ethoxy)-phenyl]-1H-pyrrolo[2,3-b]pyridin-5-yl}-carbamic acid isopropyl ester]
IC50 (Lck (p56^lck)): 100 to 9000 nM | IC50 (Src (p60^c-src)): 10 to 500 nM

Source: patent US7786113B2, “Heterocyclic carbamate derivatives, their manufacture and use as pharmaceutical agents” (Hoffman-La Roche Inc., priority 2004, dated 2010)
